Source: US5194611A, “Separation technique for a mixture of (6RS)-diastereoisomers of an ammonium salt of N^5 -methyl-5,6,7,8-tetrahydrofolic acid into single (6R) and (6S)-diastereoisomers” (Sapec S.A. fine chemicals, priority 1990, dated 1993)
Structures can show the parent of a compound that is named as a salt.

Test system: human CCRF-CEM cells
Assay: cells
Conditions: 72 h, read-out: % growth (72 hrs exp.)
Experimental: Inhibition of the growth of human CCRF-CEM cells
Human leukemia cells (CCRF-CEM) were grown during 72 hours in the presence of increasing concentration of (6R)-N^5 -methyl-THF.[…].

For `CN1c2c(nc(N)[nH]c2=O)NC[C@H]1CNc1ccc(C(=O)N[C@@H](CCC(=O)O)C(=O)O)cc1` [(6R)-N^5 -Methyl-THF.Ca^2+, (6R)-N^5 -methyl-THF-calcium salt], the activity at 1 µM was 95%, the activity at 10 µM was 99% and the activity at 30 µM was 10%. It also gave an activity at 100 µM of 9.3% and an activity at 250 µM of 8.2%.
